Results on 3 molecules are retold here after publication PMC10914731, “Homo-BacPROTAC-induced degradation of ClpC1 as a strategy against drug-resistant mycobacteria” (Nature Communications, 2024).

What is called Cmax is the maximum level reached in the sampled fluid or tissue. What is called MRT is the average time that molecules of a dose stay in the body. By Vss is commonly meant a proportionality between amount in the body and measured concentration, not a real space. Low readings indicate confinement near the circulation, high ones extensive tissue distribution. A word on the clearance: it is a measure of how efficiently the substance is removed, as volume per time. A low value points to inefficient removal. Usually half-life stands for the time in which the quantity being followed falls by half. Lower therefore signals rapid decline.

The format of data set [1] is in vitro ADME, Rat. To be noted: for Microsomal Stability Rat: clearance in microsomes. The essentials:
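Steps: incubate compound at 1 µmol/l with liver microsomes (0.5 mg/ml) plus 1 mM NADPH in pH 7.5 Tris-HCl buffer containing MgCl2 at 37 °C; stop aliquots over time with acetonitrile; centrifuge and measure remaining compound by LC-MS/MS; fit first-order decay and convert half-life to %Qh.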

For data set [2], the system named is Mycobacterium intracellulare. Put plainly: microbe, parasite or virus in culture. Type of data set: cell-based.
Data set [3] relates to Pseudomonas aeruginosa. As to the kind of experiment: MIC ESKAPES panel, Pseudomonas aeruginosa. Type of data set: cell-based. Here is the method: Minimum inhibitory concentration (MIC) against ESKAPES panel of Gram positive and Gram negative pathogens (Enterococcus faecium, Staphylococcus aureus, Klebsiella pneumoniae, Acinetobacter baumannii, Pseudomonas aeruginosa, Enterobacter cloacae and Salmonella typhimurium [ESKAPES panel]) were determined at the FNDR by the standard broth dilution method [CLSI, M100]. […] Mueller Hinton broth (MHB) medium was used to grow ESKAPES panel strains. The individual cultures were added as 200 μL (inoculum of 3–7 × 10^5 cfu/ml) to the respective assay plates in each well to all columns, except the media control (200 μL of medium). […] The assay plates were incubated at 37 °C, and the results were noted on the 2nd day as turbidometric readout. The clear wells indicated inhibition of growth, while the turbid wells indicated uninhibited growth.

Data set [4] in a line: in vivo. Type of data set: in vivo, BALB/cAnNCrl mice. Here is the method: The in-life experimental procedures were conducted in strict compliance with German and European animal welfare legislation in an AAALAC-accredited facility. Male BALB/cAnNCrl mice (Charles River Laboratories Research Models and Services, 97633 Sulzfeld, Germany) were used. Animals were 9 weeks old at dosing with a body weight of 21.6–24.3 g. Animals were delivered free of pathogens according to FELASA recommendations with a health certificate provided by the breeder. Upon receipt, the state of health and sex was checked. Animals acclimatized for at least 5 days before the commencement of the in-life phase. During acclimation, animals were group-housed in individually ventilated cages, on birch wood granulate bedding with species-specific enrichment (nesting material, mouse igloo, gnawing wood). During experimental conduct, animals were housed in conventional cages with elevated grid floors. Grid floor was used to avoid contamination with test item material excreted via urine and feces and subsequent reuptake during fur grooming. No bedding and enrichment were provided except a cage divider, which can be used as a shelter. Animals always had unlimited access to food and water and received a pelleted, total pathogen-free maintenance diet and tap drinking water, sterilized by filter.
In case of incomplete dissolution, the formulation was filtered at 40 °C (non-pyrogenic sterile-R filter, 0.2 µm). All formulations were stirred warm until administration. Actual test item content was determined bioanalytically.
Male BALB/cAnNCrl mice (n = 3 per test item and administration route) received a bolus dose of the formulated test item(s) (1 mg/kg iv, 30 mg/kg po) at t = 0 h, and whole blood samples were collected subsequently (35 µl at 0.1 (iv) / 0.25 (po), 0.5, 1, 2, 4, 6 h; 600 µl at sacrifice after 24 h). Animals were euthanized by exsanguination in deep isoflurane anesthesia. Whole blood samples were immediately stored on ice at about 4 °C. Plasma was separated by centrifugation at approximately 10,000 × g for 5 m at +4 °C. Centrifugation of each blood sample was started within 10 m after collection. A single aliquot of at least 15 µL of plasma was prepared and immediately stored at −20 ± 5 °C.
Sample proteins were precipitated with ACN (1 + 12, v/v) containing internal standard, and supernatants analyzed by quantitative UPLC-MS/MS: Phenomenex Luna Omega C18, 2.1 × 50 mm, 1.6 µm, 40 °C, gradient between 10% - 90% ACN with 0.1% formic acid. LogD determination: Lipophilicity of the test items, expressed as chromLogD7.5, was assessed by measuring their chromatographic retention times on C18-material. The chromatographic retention versus logD7.5 values of a series of thirteen n-alkan-2-ones (2-butanone – 2-hexadecanone) served as lipophilicity calibration.

[5] abbreviates: Experiment 2, three replicate columns.
The mark [6] stands for this setting: Experiment 2, three replicate columns, read-out: MIC (µM) Mycobacterium intracellulare.
Setting [7] is: Mycobacterium intracellulare, Experiment 1, read-out: MIC Mycobacterium intracellulare.
Where [8] appears, read: Mycobacterium intracellulare, Experiment 2, three replicate columns, read-out: MIC (µM) Mycobacterium intracellulare.
The mark [9] stands for this setting: Mycobacterium intracellulare, Experiment 2, three replicate columns, read-out: MIC (µg/ml) Mycobacterium intracellulare.
The mark [10] stands for this setting: Mycobacterium intracellulare, mean ± SD, read-out: MIC Mycobacterium intracellulare.
[11] abbreviates: Pseudomonas aeruginosa, Gram negative, n = 3 well replicates.
Where [12] appears, read: Pseudomonas aeruginosa, Gram-Negative Bacteria, replicates 1-3.
Setting [13] is: iv bolus, individual animals 1-3.
The mark [14] stands for this setting: iv bolus, mice, Mean, BLOQ <1.00 nmol/l.
The mark [15] stands for this setting: male, BALB/cAnNCrl, mouse, in vivo, iv, 0.0677 umol/kg, iv bolus, individual animals 1-3.
Setting [16] is: male, BALB/cAnNCrl, mouse, in vivo, iv, 0.0677 umol/kg, iv bolus, mice, Mean.

SMILES strings stand for the structures. Converted amounts (≈) assume the structure as drawn. “And” between values parts separate entries of the source, which are not always exact repeats. Identical values can stand only once. Like-named read-outs stand apart in the source and are kept apart here. Where a SMILES comes first, the peptide text is derived from it. [ ]: non-standard residue; d: D form. NMeLeu(5-OH,4R) = CN[C@@H](C[C@@H](C)CO)C(=O)O; Phe(βR-OMe) = CO[C@H](c1ccccc1)[C@H](N)C(=O)O; Trp(1-Me) = Cn1cc(C[C@H](N)C(=O)O)c2ccccc21; NMeL = CN[C@@H](CC(C)C)C(=O)O; Pra = C#CC[C@H](N)C(=O)O

For `C#CC[C@@H]1NC(=O)[C@H](CC(C)C)N(C)C(=O)[C@H](C(C)C)NC(=O)[C@H]([C@H](OC)c2ccccc2)NC(=O)[C@H](C)NC(=O)[C@H](C[C@@H](C)CO)N(C)C(=O)[C@H](Cc2cn(C)c3ccccc23)NC1=O` [Compound 10] (cyclo(A[Phe(βR-OMe)]V[NMeL][Pra][Trp(1-Me)][NMeLeu(5-OH,4R)])), the “Microsomal Stability Rat QH” value in data set [1] is on record as 84.600%. Further, the “Microsomal Stability Rat” value in data set [1] is listed as 85 %Qh. In addition, the MIC in data set [2] (Experiment 1, read-out: MIC Mycobacterium intracellulare) was found to be 12.5 µM; in data set [2] (setting [6]), 12.5 µM; in data set [2] (setting [7]) it was 11.4 µg/mL; in data set [2] (setting [8]) it was 12.5 µM; in data set [2] (setting [9]) it was 11.4 µg/mL; in data set [2] (setting [10]), 12.5 µM. The MIC in data set [3] (Gram-Negative Bacteria, replicates 1-3) was more than 50 µM; in data set [3] (setting [11]), more than 50 µM; in data set [3] (setting [12]), more than 45.6 µg/mL. The “MIC (µg/ml) Mycobacterium intracellulare” value in data set [2] (setting [5]) is 11.41 µg/mL (≈ 12.5 µM).
Take `COc1c(N2C[C@@H]3CCCN[C@@H]3C2)c(F)cc2c(=O)c(C(=O)O)cn(C3CC3)c12` [Moxifloxacin, reference compound]: the “MIC (µg/ml) Mycobacterium intracellulare” value in data set [2] (setting [5]) came to 0.50 µg/mL (≈ 1.25 µM). Moreover, the MIC in data set [2] (setting [6]) was 1.25 µM; in data set [2] (setting [7]) it was 1.25 µM and 0.5 µg/mL; in data set [2] (setting [8]), 1.25 µM; in data set [2] (setting [9]), 0.5 µg/mL; in data set [2] (setting [10]), 1.2 µM; in data set [3] (setting [11]), 2.5 µM. The MIC in data set [3] (setting [12]) is 2.49 µM and 1 µg/mL.
With `CO[C@H](c1ccccc1)[C@@H]1NC(=O)[C@H](C)NC(=O)[C@H](C[C@@H](C)CO)N(C)C(=O)[C@H](Cc2cn(Cc3cn(CCOCCn4cc(Cn5cc(C[C@@H]6NC(=O)[C@H](C(C)C)NC(=O)[C@H](CC(C)C)N(C)C(=O)[C@H](C(C)C)NC(=O)[C@H]([C@H](OC)c7ccccc7)NC(=O)[C@H](C)NC(=O)[C@H](C[C@@H](C)CO)N(C)C6=O)c6ccccc65)nn4)nn3)c3ccccc23)NC(=O)[C@H](C(C)C)NC(=O)[C@H](CC(C)C)N(C)C(=O)[C@H](C(C)C)NC1=O` [Compound 6], in data set [1], the “Microsomal Stability Rat QH” value is reported as less than 23.100% and the “Microsomal Stability Rat” value is on record as less than 23 %Qh. Also, in data set [4] (dose-normalized, mice, 1 mg kg-1 iv bolus), the Cmax is 1820 nM/(nmol kg-1). In data set [4] (setting [13]), the AUC0-inf/Dose was 3260 h nM/(nmol kg-1) and 5150 h nM/(nmol kg-1) and 5870 h nM/(nmol kg-1); the AUC0-t/Dose was 2600 h nM/(nmol kg-1) and 5020 h nM/(nmol kg-1) and 5730 h nM/(nmol kg-1); the CL was 3.2 mL/min/kg and 2.8 mL/min/kg; the “CL PL QH” value is 5.7% and 3.6% and 3.2%. For the same molecule, in data set [4] (setting [13]), the MRT was 5.1 h and 5.3 h; the “Plasma concentration 0.1 h” value was 128 nM and 127 nM and 114 nM; the “Plasma concentration 0.5 h” value was 47.9 nM and 51.6 nM and 58 nM; the “Plasma concentration 1 h” value is 44.8 nM and 45.0 nM and 44.5 nM. For the same molecule, in data set [4] (setting [13]), the “Plasma concentration 2 h” value is 32.5 nM and 36.4 nM and 39.6 nM; the “Plasma concentration 4 h” value is 17.3 nM and 22.2 nM and 13.8 nM; the Vss was 1.0 L/kg and 0.9 L/kg; the t1/2 is 4.8 h and 4.9 h. In addition, the “Plasma concentration 6 h” value in data set [4] (iv bolus, individual animals 1-3, BLOQ <1.00 nmol/l) is 11.6 nM and 14.7 nM and 20.6 nM. Further, the Cmax in data set [4] (iv bolus, individual animals 1-3, read-out: Cmax) is 127 nM and 114 nM. In addition, in data set [4] (iv bolus, mice, Mean), the AUC0-inf/Dose is 4760 h nM/(nmol kg-1), the AUC0-t/Dose is given as 4450 h nM/(nmol kg-1), the “CL PL QH” value came out at 4.1% and the “Plasma concentration 0.1 h” value was determined as 123 nM. In addition, in data set [4] (iv bolus, mice, Mean), the “Plasma concentration 0.5 h” value stood at 52.5 nM, the “Plasma concentration 1 h” value was determined as 44.8 nM, the “Plasma concentration 2 h” value was determined as 36.2 nM and the “Plasma concentration 4 h” value was 17.8 nM. Besides, in data set [4] (setting [14]), the “Plasma concentration 6 h” value is 15.6 nM and the “Plasma concentration 24 h” value is 1.3 nM. Further, the tmax in data set [4] (male, BALB/cAnNCrl, mouse, in vivo, 0.0677 umol/kg, iv bolus, individual animals 1-3) worked out at 6 min. Also, in data set [4] (setting [15]), the clearance stood at 5.1 mL/min/kg and the half-life is 2.7 h. Further, the Cmax in data set [4] (male, BALB/cAnNCrl, mouse, in vivo, iv, 0.0677 umol/kg, iv bolus, individual animals 1-3, read-out: Cmax) came out at 128 nM. For the same molecule, in data set [4] (male, BALB/cAnNCrl, mouse, in vivo, iv, 0.0677 umol/kg, iv bolus, individual animals 1-3, read-out: MRT), the MRT was 3.6 h. The Vd in data set [4] (male, BALB/cAnNCrl, mouse, in vivo, iv, 0.0677 umol/kg, iv bolus, individual animals 1-3, read-out: Vss) is 1.1 L/kg. In addition, in data set [4] (setting [16]), the clearance was determined as 3.7 mL/min/kg and the half-life is 4.1 h. For the same molecule, the Cmax in data set [4] (male, BALB/cAnNCrl, mouse, in vivo, iv, 0.0677 umol/kg, iv bolus, mice, Mean, read-out: Cmax) is 123 nM. The MRT in data set [4] (male, BALB/cAnNCrl, mouse, in vivo, iv, 0.0677 umol/kg, iv bolus, mice, Mean, read-out: MRT) came to 4.7 h. Also, in data set [4] (male, BALB/cAnNCrl, mouse, in vivo, iv, 0.0677 umol/kg, iv bolus, mice, Mean, read-out: Vss), the Vd came to 1 L/kg. The Vd in data set [4] (male, BALB/cAnNCrl, mouse, in vivo, iv, 1 mg/kg, mice, 1 mg kg-1 iv bolus, read-out: VSS) was 0.95 L/kg. Further, the clearance in data set [4] (male, BALB/cAnNCrl, mouse, in vivo, iv, 1 mg/kg, plasma clearance, mice, 1 mg kg-1 iv bolus) was determined as 3.73 mL/min/kg. The molecule also showed a half-life in data set [4] (male, BALB/cAnNCrl, mouse, in vivo, iv, 1 mg/kg, plasma, mice, 1 mg kg-1 iv bolus) of 3.33 h.
